# Source: patent US12692529B2, “Quantitative screen for the assessment of inter-individual variability in drug metabolism by the human gut microbiome” (The Trustees of Princeton University, priority 2020, dated 2026)
# Legend:
# [1] = test system: ex vivo cultures of donor gut microbiome (BG medium); assay: MDMQ-Screen 20-donor screen: drug depletion and metabolite production in ex vivo cultures, targeted metabolomics by HPLC-HRMS; conditions: for MDM (microbiome-derived metabolism) across donors / MDM in drug depletion across donors / MDM in metabolite production across donors: 20 donors, BG medium, drug 33 μM, 24-hour incubation; for MDM in drug depletion across donors: significant if FDR p<0.01 and depletion >50% vs controls; for MDM in metabolite production across donors: significant if FDR p<0.01 vs all three controls; for Pearson correlation coefficient of drug signal and sum of known metabolite signals (drug depletion vs metabolite production): all donor-drug ex vivo samples, known (quantified) metabolites only
# [2] = test system: ex vivo cultures of donor gut microbiome (BG medium); assay: Untargeted metabolomics with molecular ion networking for new metabolite discovery in the 20-donor screen; type: in vitro ADME, human
# Protocol: In order to extract all features in a given sample, a batch recursive feature extraction method for small molecules and peptides within Profinder 8 (Agilent) can be used. The following settings in the method were changed from default: compound ion count threshold set to two ions, alignment retention time tolerance set to 0.2 min, minimum MFE score set to 90, minimum file prevalence set to 2, expected retention time set to ±1 min, retention time contribution to matching score set to 90, expected MS1 mass variation set to 10 ppm, expected retention time tolerance set to 0.2 min, absolute height threshold for EIC integration set to 2500 counts, and final absolute height threshold set to 5000. The resulting feature abundances were then analyzed in MATLAB. Any sample whose internal standard AUC is less than 10^6 was removed. Hypothesis testing was then performed using similar statistical methods as for metabolite production in the targeted metabolomics, except that the multiple hypothesis correction of Storey (Storey, 2002) was used in place of the Benjamini-Hochberg method and require a fold-change cut-off of two relative to all controls. […] All ions already quantified in the screen and all features that are statistically significant for more than one drug are removed. […]
SMILES,MDM in drug depletion across donors [1],MDM in metabolite production across donors [1],further results
Cc1cccc(Nc2ccncc2S(=O)(=O)NC(=O)NC(C)C)c1 [torsemide],,,MDM (microbiome-derived metabolism) across donors [1]: consistently negative
CC(C)/N=c1\cc2n(-c3ccc(Cl)cc3)c3ccccc3nc-2cc1Nc1ccc(Cl)cc1 [clofazimine],variable,variable,
C[C@]12CCC(=O)C=C1CC[C@@H]1[C@@H]2[C@@H](O)C[C@@]2(C)[C@H]1CC[C@]2(O)C(=O)CO [hydrocortisone],variable,,
CC(=O)N1CCN(c2ccc(OCC3COC(Cn4ccnc4)(c4ccc(Cl)cc4Cl)O3)cc2)CC1 (stereo not drawn) [ketoconazole],,,MDM (microbiome-derived metabolism) across donors [1]: consistently negative
O=C(CCCCCCC(=O)Nc1ccccc1)NO [vorinostat],variable,,Pearson correlation coefficient of drug signal and sum of known metabolite signals (drug depletion vs metabolite production) [1]: −0.91
CC1=C(CC(=O)O)c2cc(F)ccc2/C1=C\c1ccc([S+](C)[O-])cc1 (stereo not drawn) [sulindac],variable,variable,
Cc1ccc(C(=O)c2cc(O)c(O)c([N+](=O)[O-])c2)cc1 [tolcapone],,consistently positive,
CC(=O)S[C@@H]1CC2=CC(=O)CC[C@]2(C)[C@H]2CC[C@@]3(C)[C@@H](CC[C@@]34CCC(=O)O4)[C@H]12 [spironolactone],consistently positive,variable,
COc1c(C)c2c(c(O)c1C/C=C(\C)CCC(=O)OCCN1CCOCC1)C(=O)OC2 [mycophenolate mofetil],variable,variable,
C#C[C@]1(O)CC[C@H]2[C@@H]3CCC4=CC(=O)CC[C@@H]4[C@H]3CC[C@@]21CC [levonorgestrel],variable,,
CCCCCOC(=O)Nc1nc(=O)n([C@@H]2O[C@H](C)[C@@H](O)[C@H]2O)cc1F [capecitabine],variable,variable,
CC[C@H](C)C(=O)O[C@H]1C[C@@H](C)C=C2C=C[C@H](C)[C@H](CC[C@@H]3C[C@@H](O)CC(=O)O3)[C@H]21 [lovastatin],variable,variable,
CCCN(CCC)CCc1cccc2c1CC(=O)N2 [ropinirole],,,MDM (microbiome-derived metabolism) across donors [1]: consistently negative
O=C1CN=C(c2ccccc2Cl)c2cc([N+](=O)[O-])ccc2N1 [clonazepam],consistently positive,consistently positive,
COC(=O)C1=C(C)NC(C)=C(C(=O)OCCN(C)Cc2ccccc2)C1c1cccc([N+](=O)[O-])c1 (stereo not drawn) [nicardipine],,,"number of additional metabolites detected by the untargeted metabolomics pipeline [2]: 11; Pearson correlation coefficient of drug depletion and metabolite production after inclusion of metabolites discovered by untargeted metabolomics ([1]; after inclusion of 11 additional metabolites, FDR corrected p=0.0102): −0.6; Pearson correlation coefficient of drug signal and sum of known metabolite signals (drug depletion vs metabolite production) [1]: −0.22"
Cc1nc2n(c(=O)c1CCN1CCC(c3noc4cc(F)ccc34)CC1)CCCC2 [risperidone],consistently positive,,
CCCCC(C)(O)C/C=C/[C@H]1[C@H](O)CC(=O)[C@@H]1CCCCCCC(=O)OC (mixture of isomers) [misoprostol],consistently positive,,
